Source: US8314122B2, “Using of organic solvents in wet granulation of moxifloxacin” (Abdi Ibrahim Ilac Sanayi Ve Ticaret Anonim Sirketi, priority 2008, dated 2012)
“Also recorded” adds a separate entry of the source. Counter-ions that a name gives are not always drawn.

Experiment: Wet granulation of anhydrous moxifloxacin hydrochloride, crystal form checked by X-ray powder diffractogram
Format: physicochemical
Excerpt: Using of anhydrous moxifloxacin hydrochloride, of which X-ray powder diffractogram could be seen (FIG. 2), in pharmaceutical formulations provides eligible stability therefore preferred rather than moxifloxacin hydrochloride monohydrate. […] It is not desired and it should be prevented.
A wet granulation method with an organic solvent or mixtures of organic solvents is describe herein in which the organic solvent or mixtures of organic solvents are selected from isopropyl alcohol (IPA), acetone, ethanol, dichloromethane and mixtures thereof. […] It is not desired to be converted and thence If conversion is not desired, then granulation should not be performed with water or water mixtures. Anhydrous moxifloxacin hydrochloride should not be exposed to water in the preparation stage. The organic solvent is selected from isopropyl alcohol (IPA), acetone, ethanol, dichloromethane or mixtures thereof in the wet granulation method so as to obtain non-convertible formulations (respectively FIG. 4, FIG. 5, FIG. 6, FIG. 7).
POVIDONE K-30 (polyvinylpyrrolidone) is added to isopropyl alcohol and mixed until the POVIDONE K-30 (polyvinylpyrrolidone) is completely dissolved (Step 1). Moxifloxacin Hydrochloride and Microcrystalline Cellulose are transferred to a granulator and mixed (Step 2). The granulation solution from step 1 is added to the powder mixtures from step 2 and mixed. Wet granules are taken from the granulator to the oven and dried. The granules are sieved. MANNITOL SD 200 (mannitol) and croscarmellose sodium are transferred to the mixtures in the container and mixed. Magnesium stearate is sieved and added to the mixtures in the container and sieved. The blend is tabletted using appropriate punches according to the specifications.

conversion of anhydrous form to moxifloxacin hydrochloride monohydrate (wet granulation with isopropyl alcohol (FIG. 4)): no conversion
SMILES: COc1c(N2C[C@@H]3CCCN[C@@H]3C2)c(F)cc2c(=O)c(C(=O)O)cn(C3CC3)c12 [anhydrous moxifloxacin hydrochloride]
conversion of anhydrous form to moxifloxacin hydrochloride monohydrate (wet granulation with acetone (FIG. 5)): no conversion to moxifloxacin hydrochloride monohydrate
conversion of anhydrous form to moxifloxacin hydrochloride monohydrate (wet granulation with dichloromethane (FIG. 7)): no conversion to moxifloxacin hydrochloride monohydrate
conversion of anhydrous form to moxifloxacin hydrochloride monohydrate (wet granulation with ethanol (FIG. 6)): no conversion to moxifloxacin hydrochloride monohydrate
conversion of anhydrous form to moxifloxacin hydrochloride monohydrate (wet granulation with water as wetting agent (FIG. 3), hydrochloride): instantly converted to moxifloxacin hydrochloride monohydrate; also recorded: conversion from anhydrous moxifloxacin hydrochloride to moxifloxacin hydrochloride monohydrate
